PubChem BioAssay AID256 (DTP/NCI, 2004)
“And” between values parts separate entries of the source, which are not always exact repeats. Identical values can stand only once. Toxic doses and inconclusive results are not listed.

System: CD2F1 mice, L1210 leukemia ip, survival T/C
Assay: NCI In Vivo Anticancer Drug Screen. Data for tumor model L1210 Leukemia (intraperitoneal) in CD2F1 (CDF1) mice
Details: endpoint: mean survival time, higher = longer survival
Method in brief: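 Mice carrying a transplanted tumor received test compound or vehicle alone. The value is the measurement in the treated group divided by that in the vehicle-treated control group.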

[1] = dose: 50.0 mg/kg/injection, schedule: Q01DX009 (ip), vehicle: saline with Tween-80
[2] = dose: 50.0 mg/kg/injection, schedule: Q04DX003 (ip), vehicle: saline with Tween-80
[3] = dose: 100.0 mg/kg/injection, schedule: Q01DX009 (ip), vehicle: saline with Tween-80
[4] = dose: 100.0 mg/kg/injection, schedule: Q04DX002 (ip), vehicle: saline with Tween-80
[5] = dose: 100.0 mg/kg/injection, schedule: Q04DX003 (ip), vehicle: saline with Tween-80
[6] = dose: 200.0 mg/kg/injection, schedule: Q01DX009 (ip), vehicle: saline with Tween-80
[7] = dose: 200.0 mg/kg/injection, schedule: Q04DX002 (ip), vehicle: saline with Tween-80
[8] = dose: 200.0 mg/kg/injection, schedule: Q04DX003 (ip), vehicle: saline with Tween-80
[9] = dose: 400.0 mg/kg/injection, schedule: Q04DX003 (ip), vehicle: saline with Tween-80
[10] = dose: 12.5 mg/kg/injection, schedule: Q01DX009 (ip), vehicle: saline with Tween-80
[11] = dose: 25.0 mg/kg/injection, schedule: Q01DX009 (ip), vehicle: saline with Tween-80

## O=C1c2ccccc2C(=O)N1CCS(=O)(=O)Cl
dose: 50.0 mg/kg/injection, schedule: Q01DX001 (ip), vehicle: saline with Tween-80
  T/C: 100 % of control
[1]
  T/C: 95 % of control and 101 % of control
dose: 50.0 mg/kg/injection, schedule: Q04DX002 (ip), vehicle: saline with Tween-80
  T/C: 97 % of control and 108 % of control
[2]
  T/C: 98 % of control
dose: 100.0 mg/kg/injection, schedule: Q01DX001 (ip), vehicle: saline with Tween-80
  T/C: 97 % of control
[3]
  T/C: 96 % of control and 101 % of control
[4]
  T/C: 96 % of control and 100 % of control
[5]
  T/C: 98 % of control
dose: 200.0 mg/kg/injection, schedule: Q01DX001 (ip), vehicle: saline with Tween-80
  T/C: 98 % of control
[6]
  T/C: 93 % of control
[7]
  T/C: 100 % of control and 101 % of control
[8]
  T/C: 101 % of control

## O=[N+]([O-])/C=C\c1ccc2c(c1)OCO2
[5]
  T/C: 101 % of control
[8]
  T/C: 93 % of control
[9]
  T/C: 90 % of control

## c1ccc(-c2ccc(C3=NN(c4ccccc4)C(c4ccccc4)C3NC3CCCCC3)cc2)cc1 (configuration not stated)
dose: 12.5 mg/kg/injection, schedule: Q01DX009 (ip), vehicle: other
  T/C: 100 % of control
dose: 25.0 mg/kg/injection, schedule: Q01DX009 (ip), vehicle: other
  T/C: 104 % of control
dose: 50.0 mg/kg/injection, schedule: Q01DX009 (ip), vehicle: other
  T/C: 98 % of control
dose: 100.0 mg/kg/injection, schedule: Q01DX009 (ip), vehicle: other
  T/C: 106 % of control
dose: 200.0 mg/kg/injection, schedule: Q01DX009 (ip), vehicle: other
  T/C: 98 % of control

## Cc1ncc(CNC(=O)N(CCCl)N=O)c(N)n1
dose: 3.12 mg/kg/injection, schedule: Q01DX009 (ip), vehicle: saline
  T/C: 159 % of control
dose: 3.13 mg/kg/injection, schedule: Q01DX009 (ip), vehicle: saline with Tween-80
  T/C: 180 % of control
dose: 6.25 mg/kg/injection, schedule: Q01DX009 (ip), vehicle: saline with Tween-80
  T/C: 195 % of control
dose: 6.25 mg/kg/injection, schedule: Q01DX009 (ip), vehicle: saline
  T/C: 236 % of control
[10]
  T/C: 357 % of control
dose: 12.5 mg/kg/injection, schedule: Q01DX009 (ip), vehicle: saline
  T/C: 288 % of control
dose: 17.5 mg/kg/injection, schedule: Q04DX002 (ip), vehicle: saline
  T/C: 337 % of control
[11]
  T/C: 220 % of control
dose: 35.0 mg/kg/injection, schedule: Q04DX002 (ip), vehicle: saline
  T/C: 316 % of control

## [CH3][Sb]([CH3])([CH3])([Cl])[Cl]
dose: 50.0 mg/kg/injection, schedule: Q04DX003 (ip), vehicle: saline
  T/C: 105 % of control
dose: 100.0 mg/kg/injection, schedule: Q04DX003 (ip), vehicle: saline
  T/C: 101 % of control
dose: 200.0 mg/kg/injection, schedule: Q04DX003 (ip), vehicle: saline
  T/C: 101 % of control

## Cc1ccc(NC(=O)NC2CCCCC2)cc1
[5]
  T/C: 93 % of control
[8]
  T/C: 90 % of control
[9]
  T/C: 93 % of control

## CCCCCC/C=N\N=C(N)N
dose: 75.0 mg/kg/injection, schedule: Q01DX001 (ip), vehicle: saline
  T/C: 103 % of control

## C(=C(\c1ccccc1)N1CCOCC1)/c1ccccc1
dose: 100.0 mg/kg/injection, schedule: Q01DX001 (ip), vehicle: saline sonified
  T/C: 111 % of control
[4]
  T/C: 93 % of control
dose: 200.0 mg/kg/injection, schedule: Q01DX001 (ip), vehicle: saline sonified
  T/C: 104 % of control
[7]
  T/C: 96 % of control
dose: 400.0 mg/kg/injection, schedule: Q01DX001 (ip), vehicle: saline sonified
  T/C: 102 % of control
dose: 400.0 mg/kg/injection, schedule: Q04DX002 (ip), vehicle: saline with Tween-80
  T/C: 96 % of control

## O=C1CC[C@@H]2CCCC[C@@H]2C1
[10]
  T/C: 96 % of control
[11]
  T/C: 92 % of control
[1]
  T/C: 98 % of control
[2]
  T/C: 98 % of control

## Cc1[nH]c2ccccc2c1C(C)(Cc1cc2ccccc2[nH]1)c1ccncc1 (configuration not stated)
[3]
  T/C: 91 % of control
[6]
  T/C: 100 % of control
dose: 400.0 mg/kg/injection, schedule: Q01DX009 (ip), vehicle: saline with Tween-80
  T/C: 91 % of control

## Cc1ccc(-n2c(N)cc(=O)[nH]c2=S)nc1
[5]
  T/C: 95 % of control
[8]
  T/C: 100 % of control
[9]
  T/C: 95 % of control
